Patent US11098056B2, “UDP glycosyltransferase inhibitors and methods of use” (GENZYME CORPORATION, priority 2018, dated 2021)
Counter-ions that a name gives are not always drawn.

Assays:
UGT8 [1] = target: T1, UGT8 (Homo sapiens, UniProt Q16880); assay: In vitro sulfatide (SFT) synthesis inhibition in OE19 cells, LC-MS/MS readout; format: cell-based; settings: 72 hr, sulfatide by LC-MS/MS, read-out: Potency range (IC50, In-vitro SFT)
T1 construct: host or cells: OE19 cells
T1 sequence (Q16880 21-541): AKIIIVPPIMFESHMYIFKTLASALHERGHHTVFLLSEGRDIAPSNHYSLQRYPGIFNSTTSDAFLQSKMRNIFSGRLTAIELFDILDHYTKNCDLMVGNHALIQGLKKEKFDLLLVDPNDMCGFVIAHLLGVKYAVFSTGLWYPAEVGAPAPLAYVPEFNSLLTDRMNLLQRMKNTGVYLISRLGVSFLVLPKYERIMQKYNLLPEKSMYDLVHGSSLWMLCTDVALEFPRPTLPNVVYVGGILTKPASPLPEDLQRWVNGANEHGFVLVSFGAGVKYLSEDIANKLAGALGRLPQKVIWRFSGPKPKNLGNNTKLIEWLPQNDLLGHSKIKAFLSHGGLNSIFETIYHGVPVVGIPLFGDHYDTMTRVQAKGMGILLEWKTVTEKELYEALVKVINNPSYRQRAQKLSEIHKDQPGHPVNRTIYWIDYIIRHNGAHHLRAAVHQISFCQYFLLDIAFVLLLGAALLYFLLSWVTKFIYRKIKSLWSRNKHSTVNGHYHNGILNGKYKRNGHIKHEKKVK
Procedure, shortened: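 OE19 cells, 2,500/well, exposed to compound dose-downs in triplicate for 72 hr at 37° C (screening at 10 μM final). Sulfatide quantified by LC-MS/MS (C8 UPLC, isocratic, negative-ion MRM) with C17 SFT internal standard; IC50 from concentration-response curves.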

UGT8 [2] = target: T2, UGT8 (Mus musculus, UniProt Q64676); assay: Acute in vivo target engagement in neonatal mouse brain: inhibition of de novo GalCer and SFT synthesis (13C-Gal incorporation); settings: neonatal mouse (P14-P21) brain, 5 hr
T2 construct: Groups of 5 male C57Bl/6 mice, 6-9 wks of age (Charles River Laboratories); tissue Charles River Laboratories; host or cells: mouse kidney (adult C57Bl/6) and mid-/hind brain (neonatal P14-P21 mice)
T2 sequence (Q64676 21-541): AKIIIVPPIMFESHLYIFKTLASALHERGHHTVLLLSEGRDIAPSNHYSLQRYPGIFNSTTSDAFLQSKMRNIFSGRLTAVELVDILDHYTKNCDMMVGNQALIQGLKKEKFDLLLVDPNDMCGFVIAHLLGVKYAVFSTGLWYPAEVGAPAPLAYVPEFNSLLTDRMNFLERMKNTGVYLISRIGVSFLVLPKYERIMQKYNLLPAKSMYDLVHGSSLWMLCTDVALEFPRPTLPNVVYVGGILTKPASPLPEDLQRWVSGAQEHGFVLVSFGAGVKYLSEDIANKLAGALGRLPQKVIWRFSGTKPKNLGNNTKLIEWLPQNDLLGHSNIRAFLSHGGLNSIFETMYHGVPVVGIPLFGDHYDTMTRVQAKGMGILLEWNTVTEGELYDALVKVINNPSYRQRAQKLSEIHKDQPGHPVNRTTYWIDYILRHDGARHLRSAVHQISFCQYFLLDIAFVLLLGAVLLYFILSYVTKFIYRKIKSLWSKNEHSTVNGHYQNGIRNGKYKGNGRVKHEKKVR
Text: SFT biosynthesis and turnover in the myelin of adult mice is very low, necessitating development of a short-term acute model of de novo synthesis inhibition. To do this, we took advantage of the fact that unlike primates in which most developmental myelination occurs in utero, in rodents, peak myelination occurs between postnatal day 14 (P14) and P22.
Groups of 5 neonatal mice age-matched between P14 and P21 received test article formulated in a clinically-acceptable formulation, administered by oral gavage; the control group received vehicle alone. One hr after administration of test article, animals received an i.p. injection of 13C-Gal (3 g/kg); 5 hr after administration of test article, animals were euthanized, brains were removed and dissected for recovery of mid- and hind brain which was snap-frozen and stored at −80° C. until analysis. Plasma samples were also collected for test article exposure analysis.
(§1) Mass Spectrometer Analysis of SFT
(§2) Quantitative analysis of sphingolipids (SLs) was performed using liquid chromatography with tandem mass spectrometry analysis (LC-MS/MS). Briefly, to extract glucosylceramide (GlcCer), galactosylceramide (GalCer), and sulfatide (ST), an aliquot of 10 μL of mouse tissue homogenate (100 mg/ml in water) was mixed with 1 mL of extraction solution (0.2% Formic Acid; 5 mM Ammonium formate in (50:50) Methanol:Acetonitrile (v/v) with internal standards (IS)). C17-ST and D35 labeled C18-GalCer were used for IS. The mixtures were vortexed and centrifuged. The resulting supernatants were transferred to HPLC vials for LC-MS/MS analysis. GlcCer and GalCer were separated using a Waters Acquity UPLC and Atlantis HILIC Silica column (2.1 mm×150 mm, […], Waters Corp., Milford, Mass.) and analyzed by an API 5000 triple quadrupole mass spectrometer in MRM mode (Applied Biosystems, Foster City, Calif.). ST were analyzed using a Waters Acquity UPLC and BEH C18 column (2.1 mm×50 mm, […], Waters Corp., Milford, Mass.) and analyzed by an API 6500 triple quadrupole mass spectrometer in MRM mode (Applied Biosystems, Foster City, Calif.).

UGT8 [3] = target: T2, UGT8; assay: Acute in vivo target engagement in mouse kidney: inhibition of de novo GalCer and SFT synthesis (13C-Gal incorporation); settings: 5 hr
Procedure: In vivo target engagement was initially assessed in an adult mouse kidney model assessing de novo synthesis inhibition. This model was selected because the high rate of GalCer and SFT synthesis and turnover in kidney facilitated development of an acute one-day model assessing the effect of a single administration of compound at different doses. Inhibition of de novo synthesis was determined by measuring the amount of 13C6 galactose (13C-Gal; CIL, cat #CLM-1570-pk) incorporated into GalCer and SFT.
Groups of 5 male C57Bl/6 mice, 6-9 wks of age (Charles River Laboratories) were maintained in an ALAAC-accredited vivarium with food and water ad libitum and were allowed to acclimate one week before initiating studies. Three to 5 dose groups received test article formulated in a clinically-acceptable formulation, administered by oral gavage; the control group received vehicle alone. One hr after administration of test article, animals received an intraperitoneal (i.p.) injection of 13C-Gal (3 g/kg); 5 hr after administration of test article, animals were euthanized and a kidney was removed and divided into two longitudinal samples that were snap-frozen and stored at −80° C. until processing for test article tissue exposure and lipid analysis (GalCer and SFT). Typically, brain and plasma samples were also collected for test article exposure.
as §1, §2

SMILES	IC50 (UGT8 [1])	brain GalCer % inh (UGT8 [2]; single oral dose 10 mg/kg)	brain Sulfatide % inh (UGT8 [2]; single oral dose 10 mg/kg)	brain GalCer % inh (UGT8 [2]; single oral dose 30 mg/kg)	brain Sulfatide % inh (UGT8 [2]; single oral dose 30 mg/kg)	kidney GalCer % inh (UGT8 [3]; single oral dose 1 mg/kg)	kidney Sulfatide % inh (UGT8 [3]; single oral dose 1 mg/kg)	kidney GalCer % inh (UGT8 [3]; single oral dose 3 mg/kg)	kidney Sulfatide % inh (UGT8 [3]; single oral dose 3 mg/kg)	kidney GalCer % inh (UGT8 [3]; single oral dose 10 mg/kg)	kidney Sulfatide % inh (UGT8 [3]; single oral dose 10 mg/kg)	kidney GalCer % inh (UGT8 [3]; single oral dose 50 mg/kg)	also measured
CNC(=O)c1csc2c(C(F)(F)F)cc(N3CCC(OC(=O)NC(C)C)CC3)nc12 [Example 76, 1-(3-(Methylcarbamoyl)-7-(trifluoromethyl)thieno[3,2-b]pyridin-5-yl)piperidin-4-yl isopropylcarbamate]	< 100 nM	A (A > 80%)	A (A > 80%)	A (A > 80%)	A (A > 80%)	C (C < 40%)	C (C < 40%)	B (40% < B < 80%)	B (40% < B < 80%)	B (40% < B < 80%)	B (40% < B < 80%)		brain GalCer % inh (UGT8 [2]; single oral dose 3 mg/kg): B (40% < B < 80%); brain Sulfatide % inh (UGT8 [2]; single oral dose 3 mg/kg): B (40% < B < 80%)
CNC(=O)c1csc2c(C(F)(F)F)cc(N3CCC(OC(=O)NCC4CC4)CC3)nc12 [Example 475, 1-(3-(Methylcarbamoyl)-7-(trifluoromethyl)thieno[3,2-b]pyridin-5-yl)piperidin-4-yl (cyclopropylmethyl)carbamate trifluoroacetate]								C (C < 40%)		B (40% < B < 80%)		B (40% < B < 80%)	
CNC(=O)c1csc2c(C(F)(F)F)cc(N3CCC(OC(=O)N[C@@H](C)CF)CC3)nc12 [Example 693, [1-[3-(Methylcarbamoyl)-7-(trifluoromethyl)thieno[3,2-b]pyridin-5-yl]-4-piperidyl] N-[(1S)-2-fluoro-1-methyl-ethyl]carbamate]	< 100 nM					C (C < 40%)	C (C < 40%)	C (C < 40%)	C (C < 40%)	B (40% < B < 80%)	A (A > 80%)		
CNC(=O)c1csc2c(C(F)(F)F)cc(N3CCC(OC(=O)N[C@@H](C)C4CC4)CC3)nc12 [Example 109, 1-(3-(Methylcarbamoyl)-7-(trifluoromethyl)thieno[3,2-b]pyridin-5-yl)piperidin-4-yl (S)-(1-cyclopropylethyl)carbamate]	< 100 nM	B, B, B (40% < B < 80%)	A, A, A (A > 80%)	B, B, B (40% < B < 80%)	A, A, A (A > 80%)					B (40% < B < 80%)		A (A > 80%)	brain GalCer % inh (UGT8 [2]; single oral dose 100 mg/kg): B, B, B (40% < B < 80%); brain Sulfatide % inh (UGT8 [2]; single oral dose 100 mg/kg): A, A, A (A > 80%); kidney GalCer % inh (UGT8 [3]; single oral dose 5 mg/kg): C (C < 40%)
CNC(=O)c1csc2c(C(F)(F)F)cc(N3CC[C@H](OC(=O)NC(C)C)[C@@H](F)C3)nc12 [Example 496, (3S,4S)-3-Fluoro-1-(3-(methylcarbamoyl)-7-(trifluoromethyl)thieno[3,2-b]pyridin-5-yl)piperidin-4-yl isopropylcarbamate]	< 100 nM									A, A, A (A > 80%)	A, A, A (A > 80%)		kidney GalCer % inh (UGT8 [3]; single oral dose 30 mg/kg): A, A, A (A > 80%); kidney Sulfatide % inh (UGT8 [3]; single oral dose 30 mg/kg): A, A, A (A > 80%); kidney GalCer % inh (UGT8 [3]; single oral dose 100 mg/kg): A, A, A (A > 80%); kidney Sulfatide % inh (UGT8 [3]; single oral dose 100 mg/kg): A, A, A (A > 80%)
CNC(=O)c1csc2c(C(F)(F)F)cc(N3CC[C@H](OC(=O)N[C@@H](C)COC(F)(F)F)[C@@H](F)C3)nc12 (racemic) [Example 418]	< 100 nM												
